Data published in patent US20110033430A1, “METHODS FOR THE INDUCTION OF A CELL TO ENTER THE ISLET 1+ LINEAGE AND A METHOD FOR THE EXPANSION THEREOF” (THE GENERAL HOSPITAL CORPORATION, priority 2007, published 2011).
Entries after “also recorded” stand apart in the source; their conditions may differ.

Key:
murine Wls/Evi = molecular target: T1, murine Wls/Evi (Mus musculus, UniProt Q6DID7); test: Wnt reporter (superTOPFLASH) coculture with siRNA-transfected Wnt3a-producing cells, luciferase; format: cell-based; settings: coculture with transfected Wnt3a-secreting cells, versus control
T1 construct: endogenous in cells; host or cells: Wnt3a-producing (Wnt3a-secreting) cell line (ATCC), cocultured with superTOPFLASH Wnt reporter cells
T1 sequence (Q6DID7 1-541): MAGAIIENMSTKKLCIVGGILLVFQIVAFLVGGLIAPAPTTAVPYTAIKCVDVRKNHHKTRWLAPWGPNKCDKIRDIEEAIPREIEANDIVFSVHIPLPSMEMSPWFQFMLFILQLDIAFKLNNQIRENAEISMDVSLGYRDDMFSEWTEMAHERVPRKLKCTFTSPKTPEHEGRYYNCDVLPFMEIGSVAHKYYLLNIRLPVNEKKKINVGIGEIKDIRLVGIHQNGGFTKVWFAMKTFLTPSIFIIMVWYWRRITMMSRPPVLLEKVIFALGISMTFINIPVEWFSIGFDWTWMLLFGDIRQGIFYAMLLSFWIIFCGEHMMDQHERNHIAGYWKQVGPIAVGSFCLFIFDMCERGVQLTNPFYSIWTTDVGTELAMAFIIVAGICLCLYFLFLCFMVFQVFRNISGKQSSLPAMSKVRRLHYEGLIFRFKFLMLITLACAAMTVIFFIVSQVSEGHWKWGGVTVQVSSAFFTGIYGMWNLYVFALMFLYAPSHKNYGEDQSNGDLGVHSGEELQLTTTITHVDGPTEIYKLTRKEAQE
From the text: Production of Reagents for Wnt Pathway. Wnt3a or control-conditioned medium was produced as following. A Wnt3a-secreting cell line (ATCC) was allowed to grow to conflency and subcultured at 1:20 ratio prior to replenish with fresh medium. Three batches of conditioned medium were harvested every 48 hrs. Dkk1-conditioned medium was produced by transiently transfecting a Dkk1-expressing cDNA (generously provided by Dr. Randall T. Moon) into the HEK293T cell line with FuGENE 6 (Roche). The supernatant was harvested 72 hrs after transfection. A Wnt-reporter cell line, superTOPFLASH, was a generous gift from Dr. Randall T. Moon.
Small hairpin RNAs (shRNAs) oligonucleotide sequences were designed based on the following target sequences: siWLS-A ([…]) (SEQ ID NO:1) and siWLS-B (GGGTTACCGTGATGATATG, (SEQ ID NO:2) and subcloned into the retro-viral vector, RNAi-Ready pSIREN-RetroQ-DsRed-Express (Clontech) according to vendor's instructions. Negative control shRNA annealed oligonucleotide was provided by the vendor and cloned to the same vector. Retro-viral siRNAi particles were produced by transiently transfect these vectors into the packaging cell line EcoPack 2-293 cells with GENE 6 (Roche). Viral supernatant was harvested 72 hrs after transfection.
The inventors confirmed this effect by blocking the secretion of Wnt ligands from the CMC. […]

[1] = system: postnatal isl1+ progenitors in cardiac mesenchymal cells (CMC); test: High-throughput chemical screening: β-gal activity quantified by luminescence (Beto-Glo); format: cell-based, mouse; settings: CMC with isl1+ progenitors, 4 days treatment, versus DMSO control
Description: Progenitors and High-Throughput Chemical Screening. […] Briefly, 30-40 hearts from 1-5 day-old isl1-mER-Cre-mER/R26R pups were used to prepare CMC, containing isl1+ progenitors marked by β-galactosidase. 4-OH-TM (Sigma), active form of tamoxifen, was added to the culture 1 day after plating at 1 μm. These were expanded for 7 days, trypsinized, and seeded at a density of 3,000 cells per well in 384-well plates.
Isolation of Murine Postnatal Cardiac Progenitors and High-throughput Chemical Screening. […] Briefly, 30-40 hearts from 1-5 day-old is1-mER-Cre-mER/R26R pups were used to prepare CMC, containing isl1^+ progenitors marked by β-galactosidase. 4-OH-TM (Sigma), active form of tamoxifen, was added to the culture 1 day after plating at 1 μm. These were expanded for 7 days, then trypsinized, and seeded at a density of 3,000 cells per well in a 384-well plate.
To find cardiac mesenchymal cells (CMC)-derived environmental cues involved in the renewal of isl1+ progenitors, the inventors developed a high-throughput chemical screening system, based on the coculture of CMC with postnatal isl1+ progenitors (FIG. 2A). […] The inventors used this library to screen for small molecules that would expand the rare population of postnatal isl1+ progenitors.

[2] = system: postnatal isl1+ cardiovascular progenitors; test: Expansion of postnatal isl1+ cardiovascular progenitors, isl1 immunostaining; format: cell-based, mouse; parameters: increase of number of isl1+ progenitors versus control: dose or concentration left out as unconfirmed; settings: for number of isl1+ progenitors: isl1 immunostaining, versus control
Description: Immunohistochemical Analyses and lacZ Staining. Cells in culture or paraffin embedded sections were fixed with 4% paraformaldehyde and subjected to immunostaining. For mouse embryo cryosections, they were saturated with 20% sucrose followed by section and 2% PFA fix for 10 min at room temperature. The following primary antibodies were used in this study: isl1 (mouse monoclonal antibody, clone 39.4D5, clone 2D6 (Developmental Studies Hybridoma Bank, 1:100), cardiac troponin T (mouse monoclonal antibody, NeoMarkers, 1:200), smooth muscle myosin heavy chain (rabbit polyclonal, Biomedical Technologies Inc., 1:100), smooth muscle actin (mouse monoclonal, clone 1A4, Dako, 1:100; rabbit polyclonal, Abcam), phosphohistone H3 (rabbit polyclonal, Upstate). Alexa Fluor 488- or Alexa Fluor 594-conjugated secondary antibodies specific to the appropriate species were used (Molecular Probes, 1:350). 3D reconstruction was done using Winsuf from Surfdriver Software. For immunoperoxidase staining, the VECTASTAIN ABC® system (VECTOR Laboratories) was used, accordingly to the vendors' instructions. 5 μm frozen sections and cultured cells were fixed with 0.2% and 0.05% glutaraldehyde respectively for 10 min at 4° C. followed by 3 times wash with PBS. LacZ stainings were then performed on these samples by incubating with X-Gal solution containing 40 mM HEPES, pH 7.4, 5 mM K3(Fe(CN)6), 5 mM K4(Fe(CN)6), 2 mM MgCl2, 15 mM NaCl, and 1 mg/ml X-Gal. For LacZ staining on EB-derived clones expanded on CMC, 0.02% NP-40 was added to the X-Gal solution for better permeabilization. When combining LacZ staining with immunoperoxidase analyses, samples were processed first for LacZ staining at room temperature over night, followed by a re-fixation with 4% paraformaldehyde prior to the immunoperoxidase stainings for specific epitopes or by re-fixation with 2% gluteraldehyde to perform EM studies.
Statistic Analysis. Data were analyzed with two-tailed Student's t test and the results reported are statistically significant with p value <0.05. Standard error of the mean (SEM) is given for each mean value. For immunofluorescent analyses for postnatal isl1^+ cardiovascular progenitors, the cells within the whole well in an 8-well chamber slide were examined for Isl1 expression to obtain better statistic comparison.
Although there was only a small increase over the control, the effect of these compounds was highly reproducible and statistically significant (p<0.05, 0.01, or 0.001, FIG. 2C). […] Two of these compounds were unknown (compound A and compound B), and the third was 6-bromoindirubin-3′-oxime (BIO), previously shown to be an inhibitor of GSK-3 (Meijer et al., 2003). BIO has been recently shown to promote self-renewal of both human and mouse ES cells through activation of the wnt/β-catenin pathway in combination with other signaling inputs (Sato et al., 2004). The inventors explored the role of BIO on the renewal of isl1^+ progenitors.
Wnt/β-Catenin Pathway Plays a Pivotal Role in the Control of Isl1+ Progenitor Expansion. […] The inventors examined whether Wnt3a, a well-established ligand in the Wnt/β-catenin pathway (Logan and Nusse, 2004), was able to expand postnatal isl1^+ progenitors.

CMC = test: Cleaved caspase-3 immunostaining (apoptosis); format: cell-based, mouse; settings: treated CMC
From the text: To further validate the specificity of BIO function, the inventors tested two other ATP-competitive GSK-3-specific inhibitors: an acetoxime analog of BIO and 1-Azakenpaullone (Kunick et al., 2004; Meijer et al., 2003). […] Taken together, the inventors have discovered that BIO promotes the expansion of isl1+ progenitors by inhibiting GSK-3 activity.

[3] = system: human neonatal isl1+ progenitors; test: Expansion of human neonatal isl1+ progenitors, isl1 immunostaining; format: cell-based; settings: human neonatal CMC, 4 days
Description: Isolation and Cell Culture Conditions of Human Postnatal Cardiac Progenitors. Biopsies are cut in small pieces and washed in solution A (10 mM Hepes, 35 mM NaCl, 10 mM glucose, 134 mM sucrose, 16 mM Na2HPO4, 25 mM NaHCO3, 7.75 mM KCl, 1.18 mM KH2PO4, pH 7.4), supplemented with 30 mM 2,3 butanedione 2-monoxime and 0.5 mM EGTA. First digestion step is performed in solution A supplemented with 0.5% BSA, 200 UI/ml of collagenase type II (Worthington) and 6 UI/ml protease type XXIV (Sigma) for 20 min at 37° C. to remove red blood cells and cell debris. Four digestion steps are performed in solution A supplemented with 400 UI/ml collagenase type V for 20 min at 37° C. and centrifuged at 30×g for 1 min. The supernatant is neutralized from the collagenase by adding ⅕ of NCS (newborn calf serum) and are centrifuged at 1300 rpm for 3-5 min. Pellet is resuspended in DMEM supplemented with 10% NCS, 5% FBS and Pen-Strep, and cells are seeded on chamber slide. BIO was added to the culture at different doses in complete progenitor medium and cultured for 4 days prior to immunostaining for Isl1.
In order to test whether BIO was capable of expanding human neonatal isl1^+ progenitors, human neonatal CMC were isolated from the biopsies of patients with congenital heart defects into single cells and cultured for 4 days in the presence or absence of BIO.

[4] = system: anterior heart field isl1+ progenitors (AHF-GFP ES cells); test: Expansion of ES cell-derived anterior heart field GFP+/isl1+ cells on CMC feeder, FACS; format: cell-based, mouse; settings: 7 days on CMC feeder, versus control
Description: Differentiation was induced by forming embryoid bodies (EB's) in hanging drops of 600 cells in 15 μL of media without LIF. On day 6, the EB's were trypsinized into single cell suspension and sorted on the basis of GFP expression using flow cytometry. GFP positive cells were plated on a neonatal cardiac mesenchymal feeder layer for 7 days with one of four conditions: DMSO, BIO, and conditioned media from either control cells (L-Cells) or cells overexpressing wnt3A. After 7 days of expansion on the cardiac mesenchymal feeder layer, the cells were trypsinized and FACS sorted. Differentiation of the GFP positive cells was triggered as follow: into myocytes, on fibronectin by using DMEM/M199 (4:1 ratio) medium containing 10% horse serum and 5% FBS; into SM cells, on fibronectin by using DMEM/F12 containing B27 supplement, 2% FBS, and 10 ng/ml EGF.
To directly determine whether Wnt ligands are secreted from the CMC to promote the renewal of isl1^+ progenitors in a paracrine manner, the inventors developed an in vitro reconstitution of the mesenchymal niche.
To further characterize the nature of the CMC-derived cues, the inventors tested the ability of Wnt3a to reproduce this effect.

other protein kinases = settings: Plotkin et al., 2003; cited from earlier work
[5] = system: isl1-nlacZ knockin ES cell-derived precursors; test: Prespecification of mesodermal precursors toward MICPs on CMC feeder, single β-gal+ cells after 24 hr; format: cell-based, mouse; settings: 24 hr on CMC feeder, versus control
Description: Immunohistochemical Analyses and lacZ Staining. Cells in culture or paraffin embedded sections were fixed with 4% paraformaldehyde and subjected to immunostaining. For mouse embryo cryosections, they were saturated with 20% sucrose followed by section and 2% PFA fix for 10 min at room temperature. The following primary antibodies were used in this study: isl1 (mouse monoclonal antibody, clone 39.4D5, clone 2D6 (Developmental Studies Hybridoma Bank, 1:100), cardiac troponin T (mouse monoclonal antibody, NeoMarkers, 1:200), smooth muscle myosin heavy chain (rabbit polyclonal, Biomedical Technologies Inc., 1:100), smooth muscle actin (mouse monoclonal, clone 1A4, Dako, 1:100; rabbit polyclonal, Abcam), phosphohistone H3 (rabbit polyclonal, Upstate). Alexa Fluor 488- or Alexa Fluor 594-conjugated secondary antibodies specific to the appropriate species were used (Molecular Probes, 1:350). 3D reconstruction was done using Winsuf from Surfdriver Software. […]
The wnt/β-Catenin Pathway Regulates the Prespecification, Expansion, and Differentiation of Isl1+ Cardiovascular Progenitors. […] To score the effect of the CMC feeder on the prespecification of mesodermal precursors toward MICPs, the inventors quantified the single b-gal^+ cells 24 hr after treatment with various reagents (FIG. 7A). […]

siWLS-B: siRNA/shRNA against murine Wls/Evi, target sequence GGGTTACCGTGATGATATG (the letters are possibly those of the target site)
luciferase activity of Wnt reporter cells (Wnt3a secretion) (murine Wls/Evi): significant reduction; also recorded: significantly decreased

O=C1Nc2cc(Br)ccc2/C1=C1/Nc2ccccc2/C1=N\O [BIO, 6-bromoindirubin-3′-oxime]
β-gal activity (luciferase activity) [1]: significantly increase | increase of number of isl1+ progenitors versus control [2]: 7 fold | cluster formation of isl1+ progenitors, increase versus control ([2]; BIO at 2.5 μM): 11.6 fold | number of isl1+ progenitors [2]: substantially increase; also recorded: increased the number of isl1^+ progenitors in a dose-dependent manner | formation of isl1+ clusters ([2]; versus control treated samples): promoted isl1^+ progenitors to form large clusters | apoptosis, cleaved caspase-3 immunostaining (CMC): no appreciable apoptosis | number of human Isl1+ progenitors [3]: markedly increased | expansion of GFP+/Isl1+ anterior heart field cells [4]: marked expansion; also recorded: greater expansion

GSK-3 peptide inhibitor: cell-permeable and substrate-competitive GSK-3 peptide inhibitor (GKEAPPAPPQSP)
number of isl1+ progenitors [2]: significantly expand | inhibitory effect on other protein kinases (other protein kinases): negligible inhibitory effect

O=C1Cc2c([nH]c3ccc(Br)cc23)-c2ncccc2N1 [1-Azakenpaullone]
number of isl1+ progenitors [2]: substantially increased

siWLS-A: siRNA/shRNA against murine Wls/Evi, target sequence CACAAATCCTTTCTACAGTAT (the letters are possibly those of the target site)
formation of MICPs (single β-gal+ cells) [5]: significantly increased | luciferase activity of Wnt reporter cells (Wnt3a secretion) (murine Wls/Evi): significant reduction; also recorded: significantly decreased

CC(=O)O/N=C1/C(=C2/C(=O)Nc3cc(Br)ccc32)Nc2ccccc21 [acetoxime analog of BIO]
number of isl1+ progenitors [2]: substantially increased
